Laboratory results published in paper PMC8027839 (Scientific Reports, 2021).
“Also recorded” adds a separate entry of the source. Read-outs that look alike come from different tables or passages of the source.

Legend:
[1] = target: T1, SapM (Mycobacterium tuberculosis, UniProt O53361); assay: biochemical; assay type: biochemical; settings: for remaining activity at 100 µM: 0.5 h, read-out: %SA (percentage specific activity of SapM); for inhibition at 100 µM: read-out: inhibition of SapM activity (reduction in SA)
T1 construct: made in house; host or cells: Escherichia coli C41 (DE3)
T1 sequence (O53361 44-299): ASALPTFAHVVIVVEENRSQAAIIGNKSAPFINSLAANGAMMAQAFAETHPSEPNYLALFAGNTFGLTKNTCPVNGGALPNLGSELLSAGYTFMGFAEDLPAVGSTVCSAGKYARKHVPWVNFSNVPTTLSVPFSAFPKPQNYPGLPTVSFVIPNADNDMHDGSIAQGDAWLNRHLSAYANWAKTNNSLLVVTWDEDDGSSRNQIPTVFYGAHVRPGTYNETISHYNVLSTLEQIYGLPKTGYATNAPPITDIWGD

[2] = target: T1, SapM; set-up: method as in PMID 31312014; settings: previously reported; cited from earlier work
[3] = target: MptpA (Mycobacterium tuberculosis, UniProt P9WIA1); assay: biochemical; settings: pH 6
[4] = target: MptpB (Mycobacterium tuberculosis, UniProt I6WXK4); assay: biochemical; settings: pH 6
[5] = Compound precipitation in enzyme assays; assay type: physicochemical; settings: SapM dose-response assay
[6] = target: T1, SapM; assay: Type of inhibition of SapM, Lineweaver-Burk plots; assay type: biochemical
Source text: To determine the type of inhibition different inhibitor concentrations were selected to yield around 30% and 75% inhibition for each concentration of pNPP. This ensures sufficient signal to obtain accurate data while allowing a significant inhibition effect. Velocity (V) was plotted as a function of pNPP concentration and fit in a Lineweaver–Burk plot (double-reciprocal) using GraphPad Prism 8.41. All assays were done in 96-well microplates and performed in triplicate in at least two independent experiments.

[7] = compounds at 100 µM, relative to pNPP DMSO control

MptpB, sequence (I6WXK4 whole entry, looked up): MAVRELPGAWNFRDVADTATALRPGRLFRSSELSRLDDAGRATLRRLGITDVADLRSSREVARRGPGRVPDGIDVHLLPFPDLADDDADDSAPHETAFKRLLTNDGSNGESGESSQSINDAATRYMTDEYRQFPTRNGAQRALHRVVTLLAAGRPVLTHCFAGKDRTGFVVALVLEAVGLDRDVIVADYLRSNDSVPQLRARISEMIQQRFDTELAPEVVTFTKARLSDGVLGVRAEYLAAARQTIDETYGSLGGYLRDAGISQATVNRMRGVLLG
MptpA, sequence (P9WIA1 whole entry): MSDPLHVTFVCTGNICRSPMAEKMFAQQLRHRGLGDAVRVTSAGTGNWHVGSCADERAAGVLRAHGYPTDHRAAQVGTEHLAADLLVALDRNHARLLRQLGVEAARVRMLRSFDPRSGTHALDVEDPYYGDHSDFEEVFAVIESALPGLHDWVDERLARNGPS

With `CC(C)(C)c1cc(/C=C(\C#N)C(N)=S)cc(C(C)(C)C)c1O` [Compound 8, Tyrphostin AG 879] the remaining activity at 100 µM [1, 7] was 78.7 ± 6.6% and the inhibition at 100 µM ([1]; compounds at 100 µM) was less than 21%.

Work on `CC(C)=CC[C@@H](O)C1=CC(=O)c2c(O)ccc(O)c2C1=O` [Compound 21, Shikonin] yielded a remaining activity at 100 µM [1, 7] of 88.9 ± 4.3%.

`N[C@H](C(=O)O)[C@H](O)c1ccc(O)c(O)c1` [Compound 27, L-DOPS] gave a remaining activity at 100 µM [1, 7] of 85.9 ± 4.2%.

With `O=c1c(O)c(-c2cc(O)c(O)c(O)c2)oc2cc(O)cc(O)c12` [Compound 26, Myricetin] the remaining activity at 100 µM [1, 7] was 84 ± 6.2% and the “effect on SapM enzyme activity” value ([1]; compounds at 100 µM) was “none or poor activity”.

With `O.O.O=c1c(O)c(-c2ccc(O)c(O)c2)oc2cc(O)cc(O)c12` [Compound 28, Quercetin dehydrate] the “effect on SapM enzyme activity” value ([1]; compounds at 100 µM) was “none or poor activity” and the “%SA (percentage specific activity of SapM)” value [1, 7] was 78.9 ± 9.2%.

`O=c1c(-c2ccc(O)cc2)coc2cc(O)cc(O)c12` [Compound 24, Genistein] showed a remaining activity at 100 µM [1, 7] of 84.1 ± 6.4%.

Molecule `O=c1c(-c2ccc(O)cc2)coc2cc(O)ccc12` [Compound 23, Daidzein] has a remaining activity at 100 µM [1, 7] of 108 ± 17.2%.

For `C[C@H](O)[C@H](O)[C@H]1CNc2[nH]c(N)nc(=O)c2N1.Cl.Cl` [Compound 5, (6R)-BH4, reference compound], the “%SA (percentage specific activity of SapM)” value [1, 7] was 33.3 ± 0.3% and the IC50 ([1]; pNPP assay, dose-response) was 73.9 ± 1.2 µM.

With `N#CC(C#N)=Cc1ccc([N+](=O)[O-])c(O)c1` [Compound 19, Tyrphostin AG 126] the “%SA (percentage specific activity of SapM)” value [1, 7] was 99.0 ± 5.5%.

In the case of `N#CC(C#N)=Cc1ccc(O)c(O)c1` [Compound 7, Tyrphostin 23], the remaining activity at 100 µM [1, 7] is reported as 73.5 ± 3.1% and the inhibition at 100 µM ([1]; compounds at 100 µM) is reported as 30 to 50%.

In the case of `Oc1cc(O)c2c(c1)O[C@H](c1ccc(O)c(O)c1)[C@H](O)C2` [Compound 32, (−)-Epicatechin], the remaining activity at 100 µM [1, 7] is reported as 97.9 ± 7.2%.

In the case of `N#CC(C#N)=Cc1ccc(O)cc1` [Compound 12, Tyrphostin 8], the “%SA (percentage specific activity of SapM)” value [1] is reported as 104.2 ± 4.2% and the “inhibition of SapM activity (reduction in SA)” value (from here on “inhibition … (reduction in SA)”) ([1]; 100 µM) is reported as “less than 21%”.

With `Oc1cc(O)c2c(c1)O[C@H](c1ccc(O)c(O)c1)[C@@H](O)C2` [Compound 33, (+)-Catechin] the “%SA (percentage specific activity of SapM)” value [1, 7] was 95.9 ± 12.3%.

In the case of `O=C1O[C@H]([C@@H](O)CO)C(O)=C1O` [L-AC, L-ascorbic acid], the IC50 [2] is listed as greater than 200 µM.

With `O=C(O)c1cc(O)c(O)c(O)c1` [Compound 29, Gallic acid] the remaining activity at 100 µM [1, 7] was 30.7 ± 3.6%, the inhibition at 100 µM ([1]; compounds at 100 µM) was roughly 70% and the IC50 ([1]; pNPP assay, dose-response) was 63 ± 1.5 µM. The IC50 ([3]; pNPP assay) was greater than 100 µM and the IC50 ([4]; pNPP assay) was greater than 100 µM.

With Tyrphostin AG 974 [Compound 17] the “%SA (percentage specific activity of SapM)” value [1, 7] was 71.9 ± 1.4%.

With `N#C/C(=C\c1ccc(O)c(O)c1)C(N)=O` [Compound 16, Tyrphostin AG 99] the “%SA (percentage specific activity of SapM)” value [1, 7] was 58.3 ± 0.6%.

With `N#CC(C#N)=C(N)/C(C#N)=C/c1ccc(O)cc1` [Compound 9, Tyrphostin AG 112] the “inhibition … (reduction in SA)” value ([1]; compounds at 100 µM) was “less than 21%” and the “%SA (percentage specific activity of SapM)” value [1, 7] was 88.7 ± 1.7%.

Molecule `Cc1cc(O)c2c(c1)C(=O)c1cc(O)cc(O)c1C2=O` [Compound 25, Emodin] has a remaining activity at 100 µM [1, 7] of 68.6 ± 7.2% and an inhibition at 100 µM ([1]; compounds at 100 µM) of roughly 30%.

For `N#Cc1c2nc3ccccc3nc2n2ccc(NC(=O)c3cccs3)cc12` [Compound 4, HI-TOPK-32], the “%SA (percentage specific activity of SapM)” value [1] was 20.5 ± 3.7% and the “concentration at which compound precipitates” value [5] was greater than 100 µM.

In the case of `CCCCCCCCCCCC(=O)c1c(O)c(C(=O)CCCCCCCCCCC)c(O)c(C2CC(c3ccc(O)cc3)Oc3cc(O)ccc32)c1O` (stereo not shown) [Compound 3, YM-26734], the “%SA (percentage specific activity of SapM)” value [1] is reported as 0%, the IC50 [1] is reported as 19.8 ± 1.1 µM and the “effect on SapM enzyme activity” value [1] is reported as “completely abolished the enzymatic activity”. It also gave an IC50 [3] greater than 100 µM and an IC50 [4] greater than 100 µM.

`Oc1cc(O)c2c(c1)O[C@@H](c1cc(O)c(O)c(O)c1)[C@H](O)C2` [Compound 30, (−)-Gallocatechin] showed a remaining activity at 100 µM [1, 7] of 60.4 ± 6.4% and an inhibition at 100 µM ([1]; compounds at 100 µM) of roughly 40%.

For `N#CC(C#N)=Cc1cc(O)c(O)c(O)c1` [Compound 14, Tyrphostin AG 82], the remaining activity at 100 µM [1, 7] was 0%, the “effect on SapM enzyme activity” value ([1]; compounds at 100 µM) was “completely abolished enzyme activity; also recorded: abolished enzyme activity completely” and the IC50 ([1]; pNPP assay, dose-response) was 14.5 ± 1 µM. For the same molecule, the IC50 ([3]; pNPP assay) was 23.7 ± 1.1 µM, the IC50 ([4]; pNPP assay) was greater than 100 µM and the “mechanism of inhibition of SapM” value [6] was “uncompetitive inhibitors”.

Work on `Oc1cc(O)c2c(c1)O[C@H](c1ccc(O)c(O)c1)[C@H](O)[C@H]2c1c(O)cc(O)c2c1O[C@H](c1ccc(O)c(O)c1)[C@H](O)C2` [Compound 31, Procyanidin B2] yielded a remaining activity at 100 µM [1, 7] of 100 ± 14.5%.

`O=c1cc(-c2ccc(O)cc2)oc2cc(O)cc(O)c12` [Compound 22, Apigenin] gave a remaining activity at 100 µM [1, 7] of 103 ± 1.1%.

For `O=[N+]([O-])c1ccc(Oc2ccc(Br)cc2)c(C(O)P(=O)(O)O)c1` (stereo not shown) [Compound 6, RWJ-60475], the “%SA (percentage specific activity of SapM)” value [1] was 46.6 ± 0.9%, the IC50 [1] was 41.9 ± 1.1 µM and the IC50 [3] was greater than 100 µM. For the same molecule, the IC50 [4] was greater than 100 µM.

For Tyrphostin AG 114 [Compound 15], the “%SA (percentage specific activity of SapM)” value [1, 7] was 48.6 ± 1.1% and the IC50 ([1]; pNPP assay, dose-response) was 78.4 ± 2.7 µM.

In the case of `NC(Cc1cc(O)c(O)cc1O)C(=O)O` (racemic) [Compound 20, 6-Hydroxy-DL-DOPA], the “inhibition … (reduction in SA)” value ([1]; compounds at 100 µM) is reported as ~ 30% and the “%SA (percentage specific activity of SapM)” value [1, 7] is reported as 71.7 ± 3.4%.

With `N#C/C(=C\c1ccc(O)c(O)c1)C(=O)c1ccc(O)c(O)c1` [Compound 11, Tyrphostin AG 538] the “%SA (percentage specific activity of SapM)” value [1, 7] was 100.2 ± 0.3%.

In the case of `N#CC(=Cc1ccc2[nH]ccc2c1)C(N)=C(C#N)C#N` [Compound 18, Tyrphostin AG 370], the “%SA (percentage specific activity of SapM)” value [1, 7] is reported as 94.6 ± 3.1%.
